Some results are limits rather than exact numbers.

Results on 27 molecules are retold here after patent publication US10023570B2 (Array BioPharma, Inc., priority 2015, dated 2018).

human KDR protein in HEK-293 cells, sequence (P35968 20-1356): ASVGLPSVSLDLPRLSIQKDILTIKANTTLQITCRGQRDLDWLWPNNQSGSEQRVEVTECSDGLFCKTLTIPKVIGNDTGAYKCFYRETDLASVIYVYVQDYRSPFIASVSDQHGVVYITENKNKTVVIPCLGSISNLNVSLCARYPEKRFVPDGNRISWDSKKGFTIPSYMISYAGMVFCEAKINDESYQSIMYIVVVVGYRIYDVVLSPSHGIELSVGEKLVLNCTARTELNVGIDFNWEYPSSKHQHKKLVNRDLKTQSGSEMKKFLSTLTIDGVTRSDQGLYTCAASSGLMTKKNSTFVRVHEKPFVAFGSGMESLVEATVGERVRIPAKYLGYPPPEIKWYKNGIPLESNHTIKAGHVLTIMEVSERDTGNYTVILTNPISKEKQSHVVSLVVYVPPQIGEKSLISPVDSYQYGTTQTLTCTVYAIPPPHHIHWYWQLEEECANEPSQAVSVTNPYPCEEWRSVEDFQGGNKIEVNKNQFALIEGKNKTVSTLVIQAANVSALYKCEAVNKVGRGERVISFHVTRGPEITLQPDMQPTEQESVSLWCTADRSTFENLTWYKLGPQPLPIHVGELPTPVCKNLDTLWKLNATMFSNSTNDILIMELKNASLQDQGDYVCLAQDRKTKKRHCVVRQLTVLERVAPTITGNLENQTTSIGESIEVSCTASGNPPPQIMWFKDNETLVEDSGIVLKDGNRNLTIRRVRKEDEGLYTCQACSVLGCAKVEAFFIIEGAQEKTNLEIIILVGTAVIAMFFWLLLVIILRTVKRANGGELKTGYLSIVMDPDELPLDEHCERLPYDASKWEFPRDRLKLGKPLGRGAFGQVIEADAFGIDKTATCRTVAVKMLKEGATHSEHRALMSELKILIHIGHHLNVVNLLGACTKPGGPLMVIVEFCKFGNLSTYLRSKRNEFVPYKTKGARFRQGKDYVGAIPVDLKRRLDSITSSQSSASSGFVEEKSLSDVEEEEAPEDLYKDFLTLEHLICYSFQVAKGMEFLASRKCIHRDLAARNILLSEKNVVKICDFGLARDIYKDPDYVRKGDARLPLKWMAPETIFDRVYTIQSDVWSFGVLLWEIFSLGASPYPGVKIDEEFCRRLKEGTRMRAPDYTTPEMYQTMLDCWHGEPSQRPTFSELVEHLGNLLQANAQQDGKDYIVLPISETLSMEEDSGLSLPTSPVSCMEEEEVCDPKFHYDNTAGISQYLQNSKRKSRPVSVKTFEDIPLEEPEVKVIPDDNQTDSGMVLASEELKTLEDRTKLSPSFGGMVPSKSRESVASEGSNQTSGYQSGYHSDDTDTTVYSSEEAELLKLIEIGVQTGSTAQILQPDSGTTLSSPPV

One experiment has as its target human KDR protein in HEK-293 cells (Homo sapiens (Human), UniProt P35968). The experiment can be described thus: KDR Cell Assay (phospho-KDR in HEK-293 cells expressing inducible KDR). The experiment is classed as cell-based. The following applies: pKDR Cell HEK 10% FBS IC50, HEK-293 cells expressing inducible KDR, VEGF stimulated. Summed up:
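HEK-293 cells with inducible human KDR were treated with compound for 1 h in DMEM (0.25% DMSO final), then lysed. Phospho-KDR was quantified by Meso Scale immunoassay, expressed as percent of control, and IC50 taken where a 4-parameter logistic fit crossed 50 POC.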
`Cn1cc(-c2cc(-c3ccc(N4CCN(Cc5cccc(Cl)c5)CC4)nc3)c3c(C#N)cnn3c2)cn1` [Example 455, 4-(6-(4-(3-chlorobenzyl)piperazin-1-yl)pyridin-3-yl)-6-(1-yl)methyl-1H-pyrazol-4-pyrazolo[1,5-a]pyridine-3-carbonitrile] yielded a half-maximal inhibitory concentration (IC50) of 464 nM.

`Cn1cc(-c2cc(-c3ccc(N4CCN(Cc5ccccc5F)CC4)nc3)c3c(C#N)cnn3c2)cn1` [Example 427, 4-(6-(4-(2-fluorobenzyl)piperazin-1-yl)pyridin-3-yl)-6-(1-methyl-1H-pyrazol-4-yl)pyrazolo[1,5-a]pyridine-3-carbonitrile] yielded a concentration for half-maximal inhibition (IC50) of 937 nM. Consider `Cn1cc(-c2cc(-c3ccc(N4CCC5(CC4)CN(C(=O)C4CC4)C5)nc3)c3c(C#N)cnn3c2)cn1` [Example 492, 4-(6-(2-(cyclopropanecarbonyl)-2,7-diazaspiro[3.5]nonan-7-yl)pyridin-3-yl)-6-(1-methyl-1H-pyrazol-4-yl)pyrazolo[1,5-a]pyridine-3-carbonitrile], for which the IC50 was 563 nM.

Molecule `Cn1cc(-c2cc(-c3ccc(N4CCN(Cc5cccc(F)c5)CC4)nc3)c3c(C#N)cnn3c2)cn1` [Example 428, 4-(6-(4-(3-fluorobenzyl)piperazin-1-yl)pyridin-3-yl)-6-(1-methyl-1H-pyrazol-4-yl)pyrazolo[1,5-a]pyridine-3-carbonitrile] showed a 50% inhibitory concentration (IC50) of 880 nM. In the case of `CC(C)N1CCN(c2ccc(-c3cc(-c4cnn(C)c4)cn4ncc(C#N)c34)cn2)CC1` [Example 410, 4-(6-(4-isopropylpiperazin-1-yl)pyridin-3-yl)-6-(1-methyl-1H-pyrazol-4-yl)pyrazolo[1,5-a]pyridine-3-carbonitrile], half-maximal inhibition (IC50) required 1630 nM. The same measure, in the same setting: as for `CCn1cc(CN2CCN(c3ccc(-c4cc(-c5cnn(C)c5)cn5ncc(C#N)c45)cn3)CC2)cn1` [Example 446, 4-(6-(4-((1-ethyl-1H-pyrazol-4-yl)methyl)piperazin-1-yl)pyridin-3-yl)-6-(1-methyl-1H-pyrazol-4-yl)pyrazolo[1,5-a]pyridine-3-carbonitrile], the figure is 1470 nM. On the same count and under the same terms, the value for `Cn1cc(-c2cc(-c3ccc(C4CN(Cc5ccccc5)C4)nc3)c3c(C#N)cnn3c2)cn1` [Example 580, 4-(6-(1-benzylazetidin-3-yl)pyridin-3-yl)-6-(1-methyl-1H-pyrazol-4-yl)pyrazolo[1,5-a]-pyridine-3-carbonitrile] was 1240 nM. Consider `Cn1cc(-c2cc(-c3ccc(N4CC5(CN(C(=O)OC(C)(C)C)C5)C4)nc3)c3c(C#N)cnn3c2)cn1` [Example 526, tert-butyl 6-(5-(3-cyano-6-(1-methyl-1H-pyrazol-4-yl)pyrazolo[1,5-a]pyridin-4-yl)pyridin-2-yl)-2,6-diazaspiro[3.3]heptane-2-carboxylate], for which the IC50 was not below 5000 nM. Still for that read-out and setting: as for `CN(C)c1ccccc1CN1CCN(c2ccc(-c3cc(-c4cnn(C)c4)cn4ncc(C#N)c34)cn2)CC1` [Example 460, 4-(6-(4-(2-(dimethylamino)benzyl)piperazin-1-yl)pyridin-3-yl)-6-(1-methyl-1H-pyrazol-4-yl)pyrazolo[1,5-a]pyridine-3-carbonitrile], the figure is 1780 nM. Same read-out and setting: the value for `COc1ccc(Cn2cc(-c3cc(-c4ccc(N5CCNCC5)nc4)c4c(C#N)cnn4c3)cn2)cc1` [Example 590, 6-(1-(4-methoxybenzyl)-1H-pyrazol-4-yl)-4-(6-(piperazin-1-yl)pyridin-3-yl)pyrazolo[1,5-a]pyridine-3-carbonitrile] was 1490 nM; that for `Cn1cc(-c2cc(-c3ccc(N4CCN(Cc5cnccn5)CC4)nc3)c3c(C#N)cnn3c2)cn1` [Example 453] was 1680 nM.

Staying with this experiment, now noted: pKDR Cell HEK 10% FBS IC50, HEK-293 cells expressing inducible KDR, VEGF stimulated, 10% FBS.
Turning to `Cn1cc(-c2cc(-c3ccc(N4CCN(C(=O)C5(c6cnccn6)CC5)CC4)nc3)c3c(C#N)cnn3c2)cn1` [Example 350, 6-(1-methyl-1H-pyrazol-4-yl)-4-(6-(4-(1-(pyrazin-2-yl)cyclopropane-carbonyl)piperazin-1-yl)pyridin-3-yl)pyrazolo[1,5-a]pyridine-3-carbonitrile], the IC50 was found to be 1860 nM. Regarding `Cn1cc(-c2cc(-c3ccc(N4CCN(C(=O)Cc5ccc(F)cn5)CC4)nc3)c3c(C#N)cnn3c2)cn1` [Example 360, 4-(6-(4-(2-(5-fluoropyridin-2-yl)acetyl)piperazin-1-yl)pyridin-3-yl)-6-(1-methyl-1H-pyrazol-4-yl)pyrazolo[1,5-a]pyridine-3-carbonitrile bis(2,2,2-trifluoroacetate)], the IC50 was 385 nM. Regarding `CO[C@H]1CCN(C(=O)N2CCN(c3cnc(-c4cc(-c5cnn(C)c5)cn5ncc(C#N)c45)cn3)CC2)C1` [Example 289, (S)-4-(5-(4-(3-methoxypyrrolidine-1-carbonyl)piperazin-1-yl)pyrazin-2-yl)-6-(1-methyl-1H-pyrazol-4-yl)pyrazolo[1,5-a]pyridine-3-carbonitrile], the IC50 is 229 nM. In turn, `Cc1ccc(CC(=O)N2CCN(c3ccc(-c4cc(-c5cnn(C)c5)cn5ncc(C#N)c45)cn3)CC2)cn1` [Example 19, 6-(1-methyl-1H-pyrazol-4-yl)-4-(6-(4-(2-(6-methylpyridin-3-yl)acetyl)piperazin-1-yl)pyridin-3-yl)pyrazolo[1,5-a]pyridine-3-carbonitrile] yielded an IC50 of 546 nM. The same measure, in the same setting: the value for `Cn1cc(-c2cc(-c3ccc(N4CCN(CC(C)(C)O)CC4)nc3)c3c(C#N)cnn3c2)cn1` [Example 156, 4-(6-(4-(2-hydroxy-2-methylpropyl)piperazin-1-yl)pyridin-3-yl)-6-(1-methyl-1H-pyrazol-4-yl)pyrazolo[1,5-a]pyridine-3-carbonitrile] was 1760 nM; that for `COC(=O)N1CCN(c2ccc(-c3cc(-c4cnn(C)c4)cn4ncc(C#N)c34)cc2)CC1` [Example 298, Methyl 4-(4-(3-cyano-6-(1-methyl-1H-pyrazol-4-yl)pyrazolo[1,5-a]pyridin-4-yl)phenyl)piperazine-1-carboxylate] was 1830 nM; that for `Cn1cc(-c2cc(-c3ccc(N4CCN(C(=O)N5CC[C@H](F)C5)CC4)nc3)c3c(C#N)cnn3c2)cn1` [Example 102, (S)-4-(6-(4-(3-fluoropyrrolidine-1-carbonyl)piperazin-1-yl)pyridin-3-yl)-6-(1-methyl-1H-pyrazol-4-yl)pyrazolo[1,5-a]pyridine-3-carbonitrile] was 551 nM.

In turn, `Cn1cc(-c2cc(-c3ccc(N4CCN(C(=O)C(c5ccccc5)N5CCCCC5)CC4)nc3)c3c(C#N)cnn3c2)cn1` (stereo not drawn) [Example 368, 6-(1-methyl-1H-pyrazol-4-yl)-4-(6-(4-(2-phenyl-2-(piperidin-1-yl)acetyl)piperazin-1-yl)pyridin-3-yl)pyrazolo[1,5-a]pyridine-3-carbonitrile bis(2,2,2-trifluoroacetate)] showed a half-inhibitory concentration (IC50) of 1850 nM. Consider `COCCn1ccc(C(=O)N2CCN(c3ccc(-c4cc(-c5cnn(C)c5)cn5ncc(C#N)c45)cn3)CC2)n1` [Example 366, 4-(6-(4-(1-(2-methoxyethyl)-1H-pyrazole-3-carbonyl)piperazin-1-yl)pyridin-3-yl)-6-(1-methyl-1H-pyrazol-4-yl)pyrazolo[1,5-a]pyridine-3-carbonitrile bis(2,2,2-trifluoroacetate)], for which it took 422 nM to reach half-maximal inhibition (IC50). Same read-out and setting: as for `CO[C@H]1CCN(C(=O)N2CCN(c3ccc(-c4cc(-c5cnn(C)c5)cn5ncc(C#N)c45)cn3)CC2)C1` [Example 97, (S)-4-(6-(4-(3-methoxypyrrolidine-1-carbonyl)piperazin-1-yl)pyridin-3-yl)-6-(1-methyl-1H-pyrazol-4-yl)pyrazolo[1,5-a]pyridine-3-carbonitrile], the figure is 751 nM. On the same count and under the same terms, the value for `Cn1cc(-c2cc(-c3ccc(N4CCN(C(=O)C5(c6ccccc6)CC5)CC4)nc3)c3c(C#N)cnn3c2)cn1` [Example 25, 6-(1-methyl-1H-pyrazol-4-yl)-4-(6-(4-(1-phenylcyclopropane-1-carbonyl)piperazin-1-yl)pyridin-3-yl)pyrazolo[1,5-a]pyridine-3-carbonitrile] was 270 nM; that for `Cn1cc(-c2cc(-c3ccc(N4CC5(CCN(C(=O)OC(C)(C)C)CC5)C4)nc3)c3c(C#N)cnn3c2)cn1` [Example 223, tert-butyl 2-(5-(3-cyano-6-(1-methyl-1H-pyrazol-4-yl)pyrazolo[1,5-a]pyridin-4-yl)pyridin-2-yl)-2,7-diazaspiro[3.5]nonane-7-carboxylate] was 1550 nM; that for `Cn1cc(-c2cc(-c3ccc(N4CCN(C(=O)C[C@H](NC(=O)OC(C)(C)C)c5ccccc5)CC4)nc3)c3c(C#N)cnn3c2)cn1` [Example 17, (S)-tert-butyl (3-(4-(5-(3-cyano-6-(1-methyl-1H-pyrazol-4-yl)pyrazolo[1,5-a]pyridin-4-yl)pyridin-2-yl)piperazin-1-yl)-3-oxo-1-phenylpropyl)carbamate] was 83.4 nM. Same read-out and setting: as for `Cn1cc(-c2cc(-c3ccc(N4CCN(C(=O)[C@@H]5CCCO5)CC4)nc3)c3c(C#N)cnn3c2)cn1` [Example 60, (S)-6-(1-methyl-1H-pyrazol-4-yl)-4-(6-(4-(tetrahydrofuran-2-carbonyl)piperazin-1-yl)pyridin-3-yl)pyrazolo[1,5-a]pyridine-3-carbonitrile], the figure is 376 nM; as for `Cn1cc(-c2cc(-c3ccc(N4CCN(S(=O)(=O)C5CCOCC5)CC4)nc3)c3c(C#N)cnn3c2)cn1` [Example 91, 6-(1-methyl-1H-pyrazol-4-yl)-4-(6-(4-((tetrahydro-2H-pyran-4-yl)sulfonyl)piperazin-1-yl)pyridin-3-yl)pyrazolo[1,5-a]pyridine-3-carbonitrile], 60.1 nM; as for `Cn1cc(-c2cc(-c3ccc(N4CC[C@@H](C(=O)NCCC(F)(F)F)C4)nc3)c3c(C#N)cnn3c2)cn1` [Example 259, (R)-1-(5-(3-cyano-6-(1-methyl-1H-pyrazol-4-yl)pyrazolo[1,5-a]pyridin-4-yl)pyridin-2-yl)-N-(3,3,3-trifluoropropyl)pyrrolidine-3-carboxamide], 2770 nM.

A word on the IC50: it is the concentration at which inhibition is half-maximal.
